Laboratory results: patent US20010029261A1, “Small molecule sulfonamide hair growth compositions and uses” (GUILFORD PHARMACEUTICALS INC., priority 1997, published 2001)

Legend:
FKBP12 = FKBP12 (Homo sapiens, UniProt P62942); assay: Ki test procedure: inhibition of peptidyl-prolyl isomerase (rotamase) activity, chymotrypsin-coupled assay; assay type: biochemical; details: apparent Ki
Source text: The inhibition of the prolyl peptidyl cis-trans isomerase activity of FKBP may be measured as an indicator of this affinity.
Inhibition of the peptidyl-prolyl isomerase (rotamase) activity of the compounds used in the inventive methods and pharmaceutical compositions can be evaluated by known methods described in the literature (Harding et al., Nature, 1989, 341:758-760; Holt et al. J. Am. Chem. Soc., 115:9923-9938). These values are obtained as apparent Ki's and are presented for representative compounds in TABLE II.
The cis-trans isomerization of an alanine-proline bond in a model substrate, N-succinyl-Ala-Ala-Pro-Phe-p-nitroanilide, is monitored spectrophotometrically in a chymotrypsin-coupled assay, which releases para-nitroanilide from the trans form of the substrate. The inhibition of this reaction caused by the addition of different concentrations of inhibitor is determnined, and the data is analyzed as a change in first-order rate constant as a function of inhibitor concentration to yield the apparent Ki values.
In a plastic cuvette are added […] of ice cold assay buffer (25 mM HEPES, pH 7.8, 100 mM NaCl), 10 mL of FKBP (2.5 mM in 10 mM Tris-Cl pH 7.5, 100 mM NaCl, 1 mM dithiothreitol), […] of chymotrypsin (50 mg/ml in 1 mM HCl) and […] of test compound at various concentrations in dimethyl sulfoxide. The reaction is initiated by the addition of 5 mL of substrate (succinyl-Ala-Phe-Pro-Phe-para-nitroanilide, 5 mg/mL in 2.35 mM LiCl in trifluoroethanol).
The absorbance at 390 nm versus time is monitored for 90 seconds using a spectrophotometer and the rate constants are determined from the absorbance versus time data files.

hair growth = details: topical, but not oral, application; cited from earlier work

Sequence of FKBP12 (P62942 whole entry, species assumed): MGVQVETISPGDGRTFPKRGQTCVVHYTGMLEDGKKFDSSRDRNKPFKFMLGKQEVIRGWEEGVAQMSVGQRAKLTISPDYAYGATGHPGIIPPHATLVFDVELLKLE

| Ki (FKBP12) [nM] | Compound | hair growth stimulation (hair growth) |
| --- | --- | --- |
| 332 | O=C(OCCCc1cccnc1)[C@@H]1CCCN1S(=O)(=O)Cc1ccccc1 [Compound 4, 3-(3-pyridyl)-1-propyl-(2S)-N-(α-toluenesulfonyl)pyrrolidine-2-carboxylate] | – |
| 127 | O=C(OCCCCc1ccccc1)C1CCCCN1S(=O)(=O)Cc1ccccc1 (stereo not drawn) [Compound 7, 4-phenyl-1-butyl-N-(α-toluene-sulfonyl)pipecolate] | – |

Further lines, the molecule ahead of its results:

| Compound | Ki (FKBP12) [nM] | hair growth stimulation (hair growth) |
| --- | --- | --- |
| O=C(OCCCCc1ccccc1)C1CCCCN1S(=O)(=O)Cc1ccccc1 (racemic) [Compound 1, 4-phenyl-1-butyl-1-(benzylsulfonyl)-(2R,S)-2-pipecolinate] | 72 | – |
| O=C(OC(CCc1ccccc1)CCc1ccccc1)C1CCCCN1S(=O)(=O)Cc1ccccc1 (stereo not drawn) [Compound 2, 1,5-diphenyl-3-pentyl-N-(α-toluene-sulfonyl)pipecolate] | 34 | – |
| C=CC[C@@H]1/C=C(\C)C[C@H](C)C[C@H](OC)[C@H]2O[C@@](O)(C(=O)C(=O)N3CCCC[C@H]3C(=O)O[C@H](/C(C)=C/[C@@H]3CC[C@@H](O)[C@H](OC)C3)[C@H](C)[C@@H](O)CC1=O)[C@H](C)C[C@@H]2OC [FK506] | – | stimulates hair growth in a dose-dependent manner |
